Assay results as given in patent publication US7485655B2, “2-Aminothiazole allosteric enhancers of A1 adenosine receptors” (University of Virginia Patent Foundation, priority 2002, dated 2009).

Assays:
[1] = system: chicken chorioallantoic membrane (CAM); assay: CAM assay, adenosine applied via Elvax pellets; format: in vivo; conditions: Elvax pellet with 3 mg adenosine, left in place seven days
Procedure: Fertile White Leghorn chicken eggs were obtained from Truslow Farms (Chesterfield, Mo.). Eggs were incubated at 37° for 7 days, then a 1.5 cm window was cut into each egg over the CAM. Pellets were applied to the CAMS and the windows closed with cellophane tape. Eggs were incubated until day 14 when the CAMS were fixed. […] The pellets were placed on the CAM where there were a few vessels present and were left in place for seven days. The CAMS then were fixed in 10% buffered formalin and vessels were counted under 20× magnification using a Nikon stereomicroscope. The quantitation of vascular number is presented as vascular density index VDI that was an adaptation of a method described by Harris-Hooker (Harris-Hooker et al., Neovascular Responses Induced by Cultured Aortic Endothelial Cells, J Cell. Phys., 114, 302-310, 1983). A plastic cover slip inscribed with 4, 5, 6, and 8 mm diameter concentric circles was centered over the adenosine pellet on the formalin-fixed CAM. The vascular density was judged by counting the numbers of the vessels which intersected the circles. This technique allowed counting of vessels down to 10-12 u in diameter. The positioning of the pellets on the CAM was randomized. […] Adenosine was delivered by other means as well.

[2] = system: chicken chorioallantoic membrane (CAM); assay: CAM assay, drug applied daily on filter paper disc; format: in vivo; conditions: for angiogenic response in the CAM (vessel density at edge of disk): 100 nM doses, 100 μl daily for 7 days on filter paper disk
human A3 receptor = molecular target: T1, human A3 receptor (Homo sapiens, UniProt P0DMS8); conditions: cited from earlier work
T1 sequence (P0DMS8 1-318): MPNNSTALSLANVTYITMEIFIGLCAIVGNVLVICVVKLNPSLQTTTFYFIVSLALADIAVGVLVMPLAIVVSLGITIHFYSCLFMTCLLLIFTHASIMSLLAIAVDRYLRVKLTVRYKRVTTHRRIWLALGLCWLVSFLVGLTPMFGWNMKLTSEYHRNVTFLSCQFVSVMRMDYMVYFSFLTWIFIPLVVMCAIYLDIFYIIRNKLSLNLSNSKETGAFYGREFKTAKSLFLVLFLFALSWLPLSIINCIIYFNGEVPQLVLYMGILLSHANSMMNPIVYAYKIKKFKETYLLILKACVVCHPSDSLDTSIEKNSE

rat mesentery = assay: Rat mesentery angiogenesis, chronic intraperitoneal infusion by Alzet osmotic pump; format: in vivo; conditions: chronic infusion via Alzet pumps into the peritoneal cavity of a rat
Procedure: Drug application into rat mesentery using infusion pumps. Alzet osmotic pumps were filled with drug or vehicle to a volume of 200 μl. The abdominal cavities of anesthetized 150 g Sprague-Dawley rats were incised and pumps implanted into the intraperitoneal cavity. The pumps delivered the drug at 1.0 μl/hr. After one week mesenteric samples were taken between vascular arcades along the length of the small bowel. Specimens were fixed and stained using a BS:lectin stain.
The chronic infusion was an advantage because the model is not an ischemic one, so steady long term administration of the PD 81,723 may help to augment the effects of lower concentrations of endogenous adenosine.

Nc1ncnc2c1ncn2[C@@H]1O[C@H](CO)[C@@H](O)[C@H]1O [Adenosine]
angiogenesis in the windowed CAM model (vascular density index) [1]: stimulated angiogenesis

CCNC(=O)[C@H]1O[C@@H](n2cnc3c(N)nc(NCCc4ccc(CCC(=O)O)cc4)nc32)[C@H](O)[C@@H]1O [CGS21680]
angiogenic response in the CAM (vessel density at edge of disk) [2]: No angiogenic response

OC[C@H]1O[C@@H](n2cnc3c(NC4CCCC4)ncnc32)[C@H](O)[C@@H]1O [CPA, Cyclopentyladenosine]
stimulation of angiogenesis in the CAM at low dose ([2]; 20 nM CPA alone): did not stimulate angiogenesis | angiogenic response in the CAM (vessel density at edge of disk) [2]: positive angiogenic response

CCOC(=O)C1=C(C)NC(c2ccccc2)=C(C(=O)OCc2ccccc2)C1C#Cc1ccccc1 (centres unmarked) [MRS1191]
selectivity for the human A3 over the A1 receptor (human A3 receptor): > 1300 fold

CCNC(=O)[C@H]1O[C@@H](n2cnc3c(N)ncnc32)[C@H](O)[C@@H]1O [NECA]
angiogenic response in the CAM (vessel density at edge of disk) [2]: positive angiogenic response

Cc1sc(N)c(C(=O)c2cccc(C(F)(F)F)c2)c1C [PD 81,723]
stimulation of angiogenesis in the CAM ([2]; 100 μM on filter paper disc, versus vehicle, no applied agonist): 10% | angiogenesis in mature mammalian animal model (rat mesentery): Stimulation of angiogenesis

CC(C)N(C)c1nc2c(N[C@@H]3CC4CC3CC4O)ncnc2n1C (some centres unmarked) [WRC-0571]
block of C17-stimulated angiogenesis in the CAM ([2]; C17 plus WRC-0571): blocked | block of angiogenic effect of CPA in the CAM ([2]; CPA 100 nM with 1 μM WRC-0571): completely blocked | block of the effects of PD on angiogenesis in the CAM ([2]; PD plus WRC-0571): completely blocked | block of the effects of endogenous adenosine in the CAM ([2]; in vivo): blocked the effects of endogenous adenosine

CCCn1c(=O)c2[nH]c(-c3ccc(OCC(=O)NCCN)cc3)nc2n(CCC)c1=O [XAC, xanthine amine congener]
effect on baseline angiogenesis in the CAM ([2]; nonselective antagonist alone, filter paper disk, four eggs): did not inhibit baseline angiogenesis

CNC(=O)[C@H]1O[C@@H](n2cnc3c(NCc4cccc(I)c4)ncnc32)[C@H](O)[C@@H]1O [m-MECA, N^6-iodobenzyl-5′-N-methyl-carboxamidoadenosine]
angiogenic response in the CAM (vessel density at edge of disk) [2]: positive angiogenic response
